Values of other authors in patent US20120020948A1, “DAG-TYPE AND INDIRECT PROTEIN KINASE C ACTIVATORS AND ANTICOAGULANT FOR THE TREATMENT OF STROKE” (priority 2010, published 2012).

How the values were obtained:
[1] = test system: NCI 60 cell line screen
[2] = test system: PKC; conditions: for affinity for PKC: A-ring bryologs

Row | Compound | affinity for PKC [2] | further results
1 | CC1=CC[C@H](C)C(C)(C)[C@@H]1/C=C/C(C)=C/CC[C@@]1(CO)[C@H](CCCO)/C(=C(/C)C=O)CC[C@]1(C)O [Iripallidal] | – | GI50 (concentration required to inhibit growth by 50%) [1]: micromolar to nanomolar range
2 | CCCCCCCC(=O)OC1C(=CC(=O)OC)CC2CC(CO)OC(=O)CC(O)CCOC(c3ccccc3)CC3CCOC(C=CC(C)(C)C1(O)O2)O3 (stereo not drawn) [bryolog 4] | 2.3 nM | –
3 | CCCCCCCC(=O)O[C@H]1/C(=C/C(=O)OC)C[C@H]2C[C@H](CO)OC(=O)C[C@H](O)C[C@@H]3CCC[C@H](C[C@@H]4CCO[C@H](/C=C/C(C)(C)[C@]1(O)O2)O4)O3 [Analog 1] | – | PKC Affin [2]: 0.25 nM; affinity for PKC (in words) [2]: highest affinity for PKC
4 | CCCCCCCC(=O)OC1C(=CC(=O)OC)CC2CC(CO)OC(=O)CC(O)CCOC(CCCc3ccc(Br)cc3)CC3CCOC(C=CC(C)(C)C1(O)O2)O3 (stereo not drawn) [bryolog 5] | 1.9 nM | –
5 | CCCCCCCC(=O)OC1C(=CC(=O)OC)CC2CC(CO)OC(=O)CC(O)CCOC(C(C)(C)C)CC3CCOC(C=CC(C)(C)C1(O)O2)O3 (stereo not drawn) [bryolog 3] | 6.5 nM | –
